The values that follow come from patent US10254278B2, “Method and system for detection of natural high intensity sweeteners that contain hydroxyl groups” (PureCircle Sdn Bhd, priority 2011, dated 2019).

In brackets after ≈: the same amount, converted by molar mass.

The assay deals with antiserum KLH-R3 (I) (polyclonal anti-Rebaudioside D antibody). Description: Competitive indirect ELISA for Rebaudioside D (conjugate-coated format, antiserum KLH-R3 (I) / BSA-R3 coating conjugate). The assay is classed as binding, rabbit. Conditions: for cross-reactivity CR = (IC50 Rebaudioside D/IC50 compound)×100: developed immunoassay for Reb D. As to the method:
The hapten R1 (rebaudioside D) (5 mg suspended in 0.5 mL of 10 mM PBS) and KLH-conjugates or BSA-R (n=2-5), (0.5 mL of conjugate at a concentration of […], 10 mM PBS) were injected intramuscularly into two New Zealand California white rabbits, with 0.5 mL of complete Freund's adjuvant in the first immunization, and 0.5 mL of incomplete Freund's adjuvant in the following. Immunizations were performed every 21 days, and 10 days after each immunization bleedings were carried out to know the title and properties of serum from each animal. After five cycles of immunization, blood was obtained by bleeding, leaving it to coagulate overnight at 4° C. Subsequently, after adding sodium azide (0.02%) serum was separated by centrifugation and stored at −80° C.
First, the avidity of the sera obtained against different coating conjugates was determined by non-competitive indirect ELISA using different antisera (serial dilutions from 1/1000 to 1/64000) and concentrations of the coating conjugates (0.001 to 1.0 mg/L). Similarly, the avidity to the enzyme-tracer was determined by a direct non-competitive ELISA using several dilutions of the tracer (serial dilutions from 0.001 to 1.0 mg/L) and serum (from 1/500 to 1/512000).
The titres obtained from conjugate-coated format indirect format (ELISA plates coated with protein-hapten) were higher than those obtained for direct format (ELISA plates coated with serum), choosing as optimal concentrations of coating conjugates and dilution of serum, those that produced absorbance values around 0.8-1.2 units in absence of analyte (Rebaudioside D), to carry out competitive tests.
Flat-bottomed polystyrene ELISA plates were coated overnight at 4° C. with 100 μL/well of the appropriate coating conjugate solution in CB. The following day, plates were washed six times with 15 mmol/L PBS-T pH 8.5, and then 50 μL of the serum dilution and 50 μL of Reb D in PBS-T were added and incubated at room temperature during 1 h. After washing, an incubation step (1 h) with 100 μL/well GAR-HRP (diluted 1/2000 in PBS-T) was accomplished, and plates washed again. Finally, 100 μL/well of substrate solution (2 mg/mL OPD and 0.012% H2O2 in 25 mmol/L sodium citrate and 62 mmol/L sodium phosphate, pH 5.5) was added. The enzymatic reaction was stopped after 10 min by addition of 2.5 mol/L H2SO4 (50 μL/well), and the absorbance was read in a dual-wavelength mode (490, 650 nm).
The optimization was performed for the most sensitive assay (antiserum KLH-R3/BSA-R3 coating conjugate) using Reb D as competitor analyte.
The influence of several experimental parameters such as ionic strength, pH, surfactant concentration and time of competition on assay characteristics was examined in order to improve the immunoassay performance (sensitivity, maximum absorbance, working or dynamic range and detection limit). Criteria used to evaluate the assay performances were sensitivity (IC50), maximum absorbance (A0), dynamic range (DR, established between the Reb D concentrations producing 20% and 80% colour inhibition) and limit of detection (LD, estimated at 10% inhibitory concentration).
Assay selectivity was evaluated by determining the cross-reactivity with two sugars derived from Stevia rebaudiana, such as rebaudioside A and stevioside. The cross reactivity values were calculated according to the following equation: CR=(IC50 [mg/L] Rebaudioside D/IC50 [mg/L] compound)×100.

[1] abbreviates: cross-reactivity study, related compound as competitor.

Regarding `C=C1C[C@@]23CC[C@H]4[C@@](C)(CCC[C@@]4(C)C(=O)O[C@@H]4O[C@H](CO)[C@@H](O)[C@H](O)[C@H]4O[C@@H]4O[C@H](CO)[C@@H](O)[C@H](O)[C@H]4O)[C@@H]2CC[C@]1(O[C@@H]1O[C@H](CO)[C@@H](O)[C@H](O[C@@H]2O[C@H](CO)[C@@H](O)[C@H](O)[C@H]2O)[C@H]1O[C@@H]1O[C@H](CO)[C@@H](O)[C@H](O)[C@H]1O)C3` [Rebaudioside D], the IC50 (in general, the concentration that gives 50% inhibition) is, setting by setting: (PBS 5 mmol/L, 0.05% Tween 20, pH 7.5) 1.53 ± 0.41 µg/L (≈ 1.35 nM); (PBS 10 mmol/L, 0.05% Tween 20, pH 7.5) 1.30 ± 0.35 µg/L (≈ 1.15 nM); (PBS 15 mmol/L, 0.05% Tween 20, pH 7.5) 0.77 ± 0.24 µg/L (≈ 0.682 nM); (PBS 20 mmol/L, 0.05% Tween 20, pH 7.5) 1.02 ± 0.28 µg/L (≈ 0.903 nM); (PBS 30 mmol/L, 0.05% Tween 20, pH 7.5) 1.70 ± 0.45 µg/L (≈ 1.51 nM); (Tween 20 0.000%, 15 mM PBS, pH 8.5) 0.68 ± 0.26 µg/L (≈ 0.602 nM). Also, the IC50 stood at 0.56 ± 0.23 µg/L (≈ 0.496 nM) (Tween 20 0.010%, 15 mM PBS, pH 8.5); 0.58 ± 0.19 µg/L (≈ 0.514 nM) (Tween 20 0.025%, 15 mM PBS, pH 8.5); 0.49 ± 0.15 µg/L (≈ 0.434 nM) (Tween 20 0.050%, 15 mM PBS, pH 8.5); 0.39 ± 0.08 µg/L (≈ 0.345 nM) (Tween 20 0.100%, 15 mM PBS, pH 8.5); 0.36 ± 0.05 µg/L (≈ 0.319 nM) (optimal conditions (15 mM PBS, pH 8.5, 0.25% Tween 20), set of 20 calibration curves); 0.63 ± 0.21 µg/L (≈ 0.558 nM) (pH 4.5, 15 mM PBS, 0.05% Tween 20). Further, the IC50 (pH 5.5, 15 mM PBS, 0.05% Tween 20) turned out to be 0.86 ± 0.23 µg/L (≈ 0.762 nM); the IC50 (pH 6.5, 15 mM PBS, 0.05% Tween 20) turned out to be 0.91 ± 0.27 µg/L (≈ 0.806 nM); the IC50 (pH 7.5, 15 mM PBS, 0.05% Tween 20) was 0.77 ± 0.24 µg/L (≈ 0.682 nM); the IC50 (pH 8.5, 15 mM PBS, 0.05% Tween 20) is 0.49 ± 0.15 µg/L (≈ 0.434 nM); the IC50 (pH 9.5, 15 mM PBS, 0.05% Tween 20) is 0.50 ± 0.19 µg/L (≈ 0.443 nM); the IC50 (serum screening, before optimization, pair KLH-R3 (I)/BSA-R3 (1:2000/0.03 mg/L)) worked out at 1.30 µg/L (≈ 1.15 nM). Also, the “detection limit (LD, estimated at 10% inhibitory concentration)” value (optimal conditions, 20 calibration curves) is 0.01 µg/L.
With `C=C1C[C@@]23CC[C@H]4[C@@](C)(CCC[C@@]4(C)C(=O)O[C@@H]4O[C@H](CO)[C@@H](O)[C@H](O)[C@H]4O)[C@@H]2CC[C@]1(O[C@@H]1O[C@H](CO)[C@@H](O)[C@H](O)[C@H]1O[C@@H]1O[C@H](CO)[C@@H](O)[C@H](O)[C@H]1O)C3` [Stevioside], the “cross-reactivity CR = (IC50 Rebaudioside D/IC50 compound)×100” value was 8.6×10^−5%. Further, the IC50 under setting [1] is 418,605 μg/L.
The corresponding values for `C=C1C[C@@]23CC[C@H]4[C@@](C)(CCC[C@@]4(C)C(=O)O[C@@H]4O[C@H](CO)[C@@H](O)[C@H](O)[C@H]4O)[C@@H]2CC[C@]1(O[C@@H]1O[C@H](CO)[C@@H](O)[C@H](O[C@@H]2O[C@H](CO)[C@@H](O)[C@H](O)[C@H]2O)[C@H]1O[C@@H]1O[C@H](CO)[C@@H](O)[C@H](O)[C@H]1O)C3` [Rebaudioside A] are 0.16% and 225 µg/L (≈ 233 nM).
